Source: patent US10399948B2, “Negative allosteric modulators of metabotropic glutamate receptor 3” (Vanderbilt University, priority 2015, dated 2019)

Columns and labels:
[1] = target: rat mGlu3 (Rattus norvegicus (Rat), UniProt P31422); assay: mGlu3 Ca2+ flux assay; format: cell-based; conditions: for IC50: NAM, glutamate EC80, >10,000 = decrease without plateau, >30,000 = no measurable activity; for remaining activity at 30 µM: response at 30 μM test compound as percentage of maximal response to glutamate, read-out: rat mGlu3 Glu max (%)
Protocol: Gα15/TREx cells stably expressing rat mGlu3 were plated in black-walled, clear-bottomed, poly-D-lysine coated 384-well plates in 20 μL of assay medium (DMEM containing 10% dialyzed FBS, 20 mM HEPES, 25 ng/mL tetracycline, 100 units/mL penicillin/streptomycin plus 250 ng/mL Fungizone, and 1 mM sodium pyruvate) at a density of 15K cells/well. The cells were grown overnight at 37° C. in the presence of 5% CO2. […] Dye was removed, 20 μL of assay buffer was added, and the plate was incubated for 10 minutes at room temperature.
(§1) Ca^2+ flux was measured using the Functional Drug Screening System (FDSS7000, Hamamatsu, Japan). After establishment of a fluorescence baseline for about 3 seconds, the compounds of the present invention were added to the cells, and the response in cells was measured. 2.3 minutes later an EC20 concentration of the mGlu3 receptor agonist glutamate was added to the cells, and the response of the cells was measured for 1.9 minutes; an EC80 concentration of agonist was added and readings taken for an additional 1.7 minutes. All test compounds were dissolved and diluted to a concentration of 10 mM in 100% DMSO. Compounds were then serially diluted 1:3 in DMSO into 10 point concentration response curves, transferred to daughter plates, and further diluted into assay buffer to a 2× stock. Calcium fluorescence measures were recorded as fold over basal fluorescence; raw data was then normalized to the maximal response to glutamate.
(§2) The raw data file containing all time points was used as the data source in the analysis template. This was saved by the FDSS as a tab-delimited text file. Data were normalized using a static ratio function (F/F0) for each measurement of the total 360 values per well divided by each well's initial value. Data were then reduced to peak amplitudes (Max−Initial Min) using a time range that starts approximately 3 seconds prior to the glutamate EC80 addition and continues for approximately 90 seconds. This is sufficient time to capture the peak amplitude of the cellular calcium response. Individual amplitudes were expressed as % EMax by multiplying each amplitude by 100 and then dividing the product by the mean of the amplitudes derived from the glutamate ECMax-treated wells. EC50 values for test compounds were generated by fitting the normalized values versus the log of the test compound concentration (in mol/L) using a 4 parameter logistic equation where none of the parameters were fixed. Each of the three values collected at each concentration of test compound were weighted evenly.

[2] = target: rat mGlu2 (Rattus norvegicus (Rat), UniProt P31421); assay: mGlu2 Ca2+ flux assay; format: cell-based; conditions: NAM, glutamate EC80; >30,000 = no measurable activity
Protocol: Gα15 HEK293 cells stably expressing rat mGlu2 were plated in black-walled, clear-bottomed, poly-D-lysine coated 384-well plates in 20 μL of assay medium (DMEM containing 10% dialyzed FBS, 20 mM HEPES, and 1 mM sodium pyruvate) at a density of 12K cells/well. The cells were grown overnight at 37° C. in the presence of 5% CO2. The next day, medium was removed and the cells incubated with 20 μL of […] Fluo-4, AM prepared as a 2.3 mM stock in DMSO and mixed in a 1:1 ratio with 10% (w/v) pluronic acid F-127 and diluted in assay buffer (Hank's balanced salt solution, 20 mM HEPES, and 2.5 mM probenecid) for 45 minutes at 37° C. Dye was removed, 20 μL of assay buffer was added, and the plate was incubated for 5 minutes at room temperature.
as §1, with “mGlu2” for “mGlu3”
as §2, with “ECMax” for “EMax”, “IC50” for “EC50”

rat mGlu2, sequence (P31421 19-872): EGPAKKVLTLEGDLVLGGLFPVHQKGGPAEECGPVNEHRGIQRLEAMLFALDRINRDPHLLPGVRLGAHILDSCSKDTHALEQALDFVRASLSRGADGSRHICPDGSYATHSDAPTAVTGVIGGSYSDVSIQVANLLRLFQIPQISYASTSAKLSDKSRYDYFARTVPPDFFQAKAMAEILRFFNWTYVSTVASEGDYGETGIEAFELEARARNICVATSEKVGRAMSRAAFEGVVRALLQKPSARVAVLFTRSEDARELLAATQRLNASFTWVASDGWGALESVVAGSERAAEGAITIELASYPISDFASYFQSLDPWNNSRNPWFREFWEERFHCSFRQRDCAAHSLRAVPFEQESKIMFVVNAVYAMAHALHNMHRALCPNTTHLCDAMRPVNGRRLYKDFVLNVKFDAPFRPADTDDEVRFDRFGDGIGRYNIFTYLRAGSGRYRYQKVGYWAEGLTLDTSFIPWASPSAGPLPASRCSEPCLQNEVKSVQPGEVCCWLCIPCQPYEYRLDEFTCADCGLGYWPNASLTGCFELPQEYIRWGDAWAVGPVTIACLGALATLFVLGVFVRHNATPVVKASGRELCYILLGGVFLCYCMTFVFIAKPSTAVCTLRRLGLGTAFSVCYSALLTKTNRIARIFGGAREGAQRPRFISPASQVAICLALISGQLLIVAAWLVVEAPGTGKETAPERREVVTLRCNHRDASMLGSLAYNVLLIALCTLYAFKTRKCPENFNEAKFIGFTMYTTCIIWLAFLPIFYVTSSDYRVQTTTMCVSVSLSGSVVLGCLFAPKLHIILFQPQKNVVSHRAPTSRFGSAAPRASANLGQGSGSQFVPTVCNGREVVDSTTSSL
rat mGlu3, sequence (P31422 23-879): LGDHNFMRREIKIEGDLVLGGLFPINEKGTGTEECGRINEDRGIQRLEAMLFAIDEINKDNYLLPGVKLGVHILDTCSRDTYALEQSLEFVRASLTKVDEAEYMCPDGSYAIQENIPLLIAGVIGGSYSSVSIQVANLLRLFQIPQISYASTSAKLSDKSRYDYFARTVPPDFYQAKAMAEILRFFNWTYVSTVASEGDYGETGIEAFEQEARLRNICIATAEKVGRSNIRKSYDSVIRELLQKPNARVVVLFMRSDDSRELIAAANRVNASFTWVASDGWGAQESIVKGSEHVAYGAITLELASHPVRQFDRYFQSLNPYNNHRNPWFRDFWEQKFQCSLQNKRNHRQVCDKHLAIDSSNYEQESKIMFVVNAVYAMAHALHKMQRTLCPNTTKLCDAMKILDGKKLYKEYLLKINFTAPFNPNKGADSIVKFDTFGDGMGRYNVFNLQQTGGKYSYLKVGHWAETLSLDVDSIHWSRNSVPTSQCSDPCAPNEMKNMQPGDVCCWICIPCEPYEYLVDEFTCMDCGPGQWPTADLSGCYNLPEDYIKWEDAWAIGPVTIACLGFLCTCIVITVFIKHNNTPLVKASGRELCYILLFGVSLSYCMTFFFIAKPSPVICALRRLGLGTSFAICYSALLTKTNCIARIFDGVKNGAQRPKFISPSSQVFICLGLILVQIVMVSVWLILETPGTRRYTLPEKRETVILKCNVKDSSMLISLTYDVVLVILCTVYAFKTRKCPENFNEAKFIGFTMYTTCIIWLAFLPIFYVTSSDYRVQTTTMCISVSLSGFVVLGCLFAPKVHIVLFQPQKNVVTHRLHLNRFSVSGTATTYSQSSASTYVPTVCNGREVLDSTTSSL

SMILES | IC50 [1] | remaining activity at 30 µM [1] | IC50 [2]
O=c1cc(OCCCc2ccccc2)ccn1-c1ccc(F)cc1 [Compound 2, 1-(4-fluorophenyl)-4-(3-phenylpropoxy)pyridin-2(1H)-one] | 5.41 µM | 1.95% | > 30 µM
O=c1cc(OCCSc2ccccc2)ccn1-c1ccc(F)cc1 [Compound 3, 1-(4-fluorophenyl)-4-(2-(phenylthio)ethoxy)pyridin-2(1H)-one] | 3.89 µM | 1.42% | > 30 µM
CN(CCOc1ccn(-c2ccc(F)cc2)c(=O)c1)c1ccccc1 [Compound 4, 1-(4-fluorophenyl)-4-(2-(methyl(phenyl)amino)ethoxy)pyridin-2(1H)-one] | 4 µM | 0% | > 30 µM
O=c1cc(OCCOC2CCCC2)ccn1-c1ccc(F)cc1 [Compound 6, 4-(2-(cyclopentyloxy)ethoxy)-1-(4-fluorophenyl)pyridin-2(1H)-one] | > 30 µM |  | 
O=c1cc(OCCOC2CCCCC2)ccn1-c1ccc(F)cc1 [Compound 7, 4-(2-(cyclohexyloxy)ethoxy)-1-(4-fluorophenyl)pyridin-2(1H)-one] | > 10 µM | 15.5% | 
O=c1cc(OCC[S+]([O-])c2ccccc2)ccn1-c1ccc(F)cc1 (centres unmarked) [Compound 8, 1-(4-fluorophenyl)-4-(2-(phenylsulfinyl)ethoxy)pyridin-2(1H)-one] | > 30 µM |  | 
O=c1cc(OCCS(=O)(=O)c2ccccc2)ccn1-c1ccc(F)cc1 [Compound 9, 1-(4-fluorophenyl)-4-(2-(phenylsulfonyl)ethoxy)pyridin-2(1H)-one] | > 30 µM |  | 
O=c1cc(OCCOc2ccccc2)ccn1-c1ccccc1F [Compound 10, 1-(2-Fluorophenyl)-4-(2-phenoxyethoxy)pyridin-2-one] | 3.93 µM | 1.16% | > 30 µM
O=c1cc(OCCOc2ccccc2)ccn1-c1ccccn1 [Compound 11, 4-(2-phenoxyethoxy)-2H-[1,2′-bipyridin]-2-one] | > 30 µM |  | > 30 µM
O=c1cc(OCCOc2ccccc2)ccn1-c1cccc(F)n1 [Compound 12, 6′-fluoro-4-(2-phenoxyethoxy)-2H-[1,2′-bipyridin]-2-one] | > 10 µM | 33.2% | > 30 µM
O=c1cc(OCCOc2ccccc2)ccn1-c1ccncc1 [Compound 13, 4-(2-phenoxyethoxy)-2H-[1,4′-bipyridin]-2-one] | > 30 µM |  | > 30 µM
O=c1nc(OCCOc2ccccc2)ccn1-c1ccc(F)cn1 [Compound 16, 1-(5-fluoropyridin-2-yl)-4-(2-phenoxyethoxy)pyrimidin-2(1H)-one] | > 10 µM | 23.9% | > 30 µM
N#Cc1ccc(-n2ccc(OCCOc3ccccc3)cc2=O)cc1 [Compound 24, 4-(2-oxo-4-(2-phenoxyethoxy)pyridin-1(2H)-yl)benzonitrile] | 3.17 µM | 0.49% | > 30 µM
O=c1cc(OCCOc2ccccc2)ccn1-c1ccc(F)nc1 [Compound 25, 6′-fluoro-4-(2-phenoxyethoxy)-2H-[1,3′-bipyridin]-2-one] | 6.75 µM | -2.95% | > 30 µM
N#Cc1cncc(-n2ccc(OCCOc3ccccc3)cc2=O)c1 [Compound 26, 2-oxo-4-(2-phenoxyethoxy)-2H-[1,3′-bipyridine]-5′-carbonitrile] | 3.41 µM | -5.24% | > 30 µM
O=c1cc(OCCOc2ccccc2)ccn1-c1cncc(F)c1 [Compound 27, 5′-fluoro-4-(2-phenoxyethoxy)-2H-[1,3′-bipyridin]-2-one] | 1.87 µM | 4.56% | > 30 µM
O=c1cc(OCCOCc2ccccc2)ccn1-c1ccc(F)cc1 [W, 4-(2-(Benzyloxy)ethoxy)-1-(4-fluorophenyl)pyridin-2(1H)-one] | 13 µM | 14.5% | 
